Key:
[1] = tested on: SETVI; assay: Herbicidal pre-emergence action, section C (Table C10); type: in vivo, Setaria viridis; conditions: application rate 80 g/ha; visual grading after ca. 3 weeks
[2] = tested on: TRZAS; assay: Post-emergence effects on crop plants (Table F2); type: in vivo, Triticum aestivum; conditions: application rate 320 g/ha, crop plant TRZAS
Excerpt: (§1) 2 to 3 weeks after sowing, the test plants were sprayed in the single-leaf stage.

[3] = tested on: VIOTR; assay: Herbicidal pre-emergence action, section C (Table C12); type: in vivo, Viola tricolor; conditions: application rate 320 g/ha; visual grading after ca. 3 weeks
[4] = tested on: ALOMY; assay: Herbicidal post-emergence action, section E (Table E2); type: in vivo, Alopecurus myosuroides; conditions: application rate 320 g/ha; assessed visually after ca. 3 weeks
Excerpt: as §1

[5] = tested on: LOLRI; assay: Herbicidal pre-emergence action (Table A3); type: in vivo, Lolium rigidum; conditions: application rate 320 g/ha; visual grading after ca. 3 weeks
How it was run: (§2)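 Pots: sandy loam. Sowing: one mono- and one dicot weed species together per pot. Seeds covered with soil.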

[6] = tested on: STEME; assay: Herbicidal pre-emergence action (Table A6); type: in vivo, Stellaria media; conditions: application rate 320 g/ha; visual grading after ca. 3 weeks
How it was run: as §2

[7] = tested on: MATIN; assay: Herbicidal pre-emergence action, section C (Table C8); type: in vivo, Matricaria inodora; conditions: application rate 320 g/ha; visual grading after ca. 3 weeks
[8] = tested on: VERPE; assay: Herbicidal pre-emergence action, section C (Table C11); type: in vivo, Veronica persica; conditions: application rate 80 g/ha; visual grading after ca. 3 weeks
[9] = tested on: ECHCG; assay: Herbicidal post-emergence action, section E (Table E5); type: in vivo, Echinochloa crus-galli; conditions: application rate 320 g/ha; assessed visually after ca. 3 weeks
Excerpt: as §1

[10] = tested on: ECHCG; assay: Herbicidal pre-emergence action, section C (Table C6); type: in vivo, Echinochloa crus-galli; conditions: application rate 80 g/ha; visual grading after ca. 3 weeks
Excerpt: Seeds of mono- and dicotyledonous weed plants and crop plants were sown, in plastic or organic planting pots, in sandy loam and covered with soil. The compounds according to the invention, formulated in the form of wettable powders (WP) or as emulsifiable concentrates (EC), were applied to the surface of the covering soil as aqueous suspension or emulsion, with the addition of 0.5% of an additive, at an application rate of 600 1 of water/ha (converted). Following treatment, the pots were placed in a greenhouse and kept under optimum growth conditions for the test plants.

[11] = tested on: GLXMA; assay: Post-emergence effects on crop plants (Table F4); type: in vivo, Glycine max; conditions: application rate 80 g/ha, crop plant GLXMA
Excerpt: as §1

[12] = tested on: BRSNW; assay: Pre-emergence effects on crop plants (Table D5); type: in vivo, Brassica napus; conditions: crop plant; application rate 320 g/ha; visual grading after ca. 3 weeks
Excerpt: (§3) Seeds of mono- and dicotyledonous weed plants and crop plants were sown, in plastic or organic planting pots, in sandy loam and covered with soil. The compounds according to the invention, formulated in the form of wettable powders (WP) or as emulsifiable concentrates (EC), were applied to the surface of the covering soil as aqueous suspension or emulsion, with the addition of 0.5% of an additive, at an application rate of 600 1 of water/ha (converted).
(§4) Following treatment, the pots were placed in a greenhouse and kept under optimum growth conditions for the test plants.

[13] = tested on: ECHCG; assay: Herbicidal pre-emergence action (Table A2); type: in vivo, Echinochloa crus-galli; conditions: application rate 320 g/ha; visual grading after ca. 3 weeks
How it was run: as §2

[14] = tested on: ALOMY; assay: Herbicidal pre-emergence action, section C (Table C2); type: in vivo, Alopecurus myosuroides; conditions: application rate 320 g/ha; visual grading after ca. 3 weeks
[15] = tested on: DIGSA; assay: Herbicidal pre-emergence action, section C (Table C5); type: in vivo, Digitaria sanguinalis; conditions: application rate 80 g/ha; visual grading after ca. 3 weeks
[16] = tested on: POAAN; assay: Herbicidal pre-emergence action (Table A7); type: in vivo, Poa annua; conditions: application rate 320 g/ha; visual grading after ca. 3 weeks
How it was run: as §2

[17] = tested on: ORYZA; assay: Post-emergence effects on crop plants (Table F3); type: in vivo, Oryza sativa; conditions: application rate 320 g/ha, crop plant ORYZA
Excerpt: as §1

[18] = tested on: BRSNW; assay: Post-emergence effects on crop plants (Table F5); type: in vivo, Brassica napus; conditions: application rate 80 g/ha, crop plant BRSNW
Excerpt: as §1

[19] = tested on: GLXMA; assay: Pre-emergence effects on crop plants (Table D4); type: in vivo, Glycine max; conditions: crop plant; application rate 320 g/ha; visual grading after ca. 3 weeks
[20] = tested on: VIOTR; assay: Herbicidal post-emergence action, section E (Table E10); type: in vivo, Viola tricolor; conditions: application rate 320 g/ha; assessed visually after ca. 3 weeks
Excerpt: as §1

[21] = tested on: VERPE; assay: Herbicidal post-emergence action, section E (Table E9); type: in vivo, Veronica persica; conditions: application rate 320 g/ha; assessed visually after ca. 3 weeks
Excerpt: as §1

[22] = tested on: TRZAS; assay: Pre-emergence effects on crop plants (Table D2); type: in vivo, Triticum aestivum; conditions: crop plant; application rate 320 g/ha; visual grading after ca. 3 weeks
[23] = tested on: ZEAMX; assay: Pre-emergence effects on crop plants (Table D1); type: in vivo, Zea mays; conditions: crop plant; application rate 80 g/ha; visual grading after ca. 3 weeks
Excerpt: as §3, §4

[24] = tested on: ORYZA; assay: Pre-emergence effects on crop plants (Table D3); conditions: crop plant; application rate 320 g/ha; visual grading after ca. 3 weeks
[25] = tested on: POLCO; assay: Herbicidal post-emergence action, section E (Table E7); type: in vivo, Polygonum convolvulus; conditions: application rate 320 g/ha; assessed visually after ca. 3 weeks
Excerpt: as §1

[26] = tested on: MATIN; assay: Herbicidal pre-emergence action (Table A4); type: in vivo, Matricaria inodora; conditions: application rate 1280 g/ha; visual grading after ca. 3 weeks
How it was run: as §2

[27] = tested on: ZEAMX; assay: Post-emergence effects on crop plants (Table F1); type: in vivo, Zea mays; conditions: application rate 320 g/ha, crop plant ZEAMX
Excerpt: as §1

[28] = tested on: SETVI; assay: Herbicidal pre-emergence action (Table A5); type: in vivo, Setaria viridis; conditions: application rate 320 g/ha; visual grading after ca. 3 weeks
How it was run: as §2

O=C1N(Cc2cc(F)ccc2F)CCCC12CCCN(Cc1cc(F)ccc1F)C2=O (racemic) [I-017]
pre-emergence activity against SETVI [1]: 90%
post-emergence activity against TRZAS [2]: 10%
pre-emergence activity against VIOTR [3]: 80%
post-emergence activity against ALOMY [4]: 80%
pre-emergence activity against LOLRI [5]: 100%
pre-emergence activity against STEME [6]: 90%
pre-emergence activity against MATIN [7]: 80%
pre-emergence activity against VERPE [8]: 90%
post-emergence activity against ECHCG [9]: 80%
pre-emergence activity against ECHCG [10]: 100%
post-emergence activity against GLXMA [11]: 20%
pre-emergence activity against BRSNW [12]: 20%
pre-emergence activity against ECHCG [13]: 100%
pre-emergence activity against ALOMY [14]: 90%
pre-emergence activity against DIGSA [15]: 100%
pre-emergence activity against POAAN [16]: 100%
post-emergence activity against ORYZA [17]: 0%
post-emergence activity against BRSNW [18]: 0%
pre-emergence activity against GLXMA [19]: 20%
post-emergence activity against VIOTR [20]: 80%
post-emergence activity against VERPE [21]: 80%
pre-emergence activity against TRZAS [22]: 10%
pre-emergence activity against ZEAMX [23]: 10%
pre-emergence activity against ORYZA [24]: 20%
post-emergence activity against POLCO [25]: 100%
pre-emergence activity against MATIN [26]: 90%
post-emergence activity against ZEAMX [27]: 10%
pre-emergence activity against SETVI [28]: 100%

From EP4273147A1, “SUBSTITUTED SPIROLACTAMS, SALTS THEREOF AND THEIR USE AS HERBICIDALLY ACTIVE SUBSTANCES” (Bayer Aktiengesellschaft, priority 2022, dated 2023)
